Assay results: patent publication US9828360B2 (Array BioPharma Inc., priority 2012, dated 2017)

Key:
TrkA [1] = target: T1, TrkA (Homo sapiens, UniProt P04629); assay: KinaseProfiler off-target kinase profiling; assay type: biochemical; set-up: purchased Millipore, Inc. (KinaseProfiler service); conditions: 10 μM, ATP near Km
Procedure: (§1) A representative compound of the invention (Example 48) was tested for off-target kinase activity at a concentration of 10 μM by Millipore, Inc. in their KinaseProfiler™ service against all the kinases available in their full kinase panel. The compound was run in duplicate at a concentration of ATP near the Km for each individual kinase according to Millipore's specifications. The results are shown in Table B. Data are reported as percent of control (POC) and are the average of the two replicates.

TrkA [2] = target: T1, TrkA; assay: TrkA LanthaScreen Eu Kinase Binding Assay; set-up: 6HIS tagged cytoplasmic domain from Invitrogen, Cat. No. PV3144; purchased Invitrogen PV3144; conditions: averaged IC50 values, read-out: TrkA Enzyme IC50
Procedure: TrkA binding activity was determined in a TrkA LanthaScreen™ Eu Kinase Binding Assay. 5 nM His-tagged recombinant human TrkA (6HIS tagged cytoplasmic domain from Invitrogen, Cat. No. PV3144) was incubated with 4 nM Alexa-Fluor® Tracer 236 (Invitrogen Cat. No. PV5592), 2 nM biotinylated anti-His (Invitrogen Cat. No. PV6090), and 2 nM europium-labeled Streptavidin (Invitrogen Cat. No. PV5899), in buffer (25 mM MOPS, pH 7.5, 5 mM MgCl2, 0.005% Triton X-100). Three fold serial dilutions of compounds of the invention in DMSO were added to a final percentage of 2% DMSO. After 60-minute incubation at 22° C., the reaction was measured using the EnVision mutlimode plate reader (PerkinElmer) via TR-FRET dual wavelength detection at […]. The percent of control was calculated using a ratiometric emission factor. The IC50 values were determined by fitting a four parameter model to the percent of control data.
Table A provides averaged IC50 values for compounds of the invention when tested in the assay of Example A, where A represents an averaged IC50 value <100 nM; and B represents an averaged IC50 value from 100 to 1,000 nM.

PKAC-alpha = target: T2, PKAC-alpha (Homo sapiens, UniProt P17612); assay: KinaseProfiler off-target kinase profiling; assay type: biochemical; conditions: 10 μM, ATP near Km
T2 construct: purchased Millipore, Inc. (KinaseProfiler service)
Procedure: as §1

CK2alpha2 = target: T3, CK2alpha2 (Homo sapiens, UniProt P19784); assay: KinaseProfiler off-target kinase profiling; assay type: biochemical; conditions: 10 μM, ATP near Km
T3 construct: purchased Millipore, Inc. (KinaseProfiler service)
Procedure: as §1

NEK11 = target: T4, NEK11 (Homo sapiens, UniProt Q8NG66); assay: KinaseProfiler off-target kinase profiling; assay type: biochemical; conditions: 10 μM, ATP near Km
T4 construct: purchased Millipore, Inc. (KinaseProfiler service)
Procedure: as §1

EphA8 = target: T5, EphA8 (Homo sapiens, UniProt P29322); assay: KinaseProfiler off-target kinase profiling; assay type: biochemical; conditions: 10 μM, ATP near Km
T5 construct: purchased Millipore, Inc. (KinaseProfiler service)
Procedure: as §1

DRAK1 = target: T6, DRAK1 (Homo sapiens, UniProt Q9UEE5); assay: KinaseProfiler off-target kinase profiling; assay type: biochemical; conditions: 10 μM, ATP near Km
T6 construct: purchased Millipore, Inc. (KinaseProfiler service)
Procedure: as §1

MRCKbeta = target: T7, MRCKbeta (Homo sapiens, UniProt Q9Y5S2); assay: KinaseProfiler off-target kinase profiling; assay type: biochemical; conditions: 10 μM, ATP near Km
T7 construct: purchased Millipore, Inc. (KinaseProfiler service)
T7 sequence (Q9Y5S2 whole entry): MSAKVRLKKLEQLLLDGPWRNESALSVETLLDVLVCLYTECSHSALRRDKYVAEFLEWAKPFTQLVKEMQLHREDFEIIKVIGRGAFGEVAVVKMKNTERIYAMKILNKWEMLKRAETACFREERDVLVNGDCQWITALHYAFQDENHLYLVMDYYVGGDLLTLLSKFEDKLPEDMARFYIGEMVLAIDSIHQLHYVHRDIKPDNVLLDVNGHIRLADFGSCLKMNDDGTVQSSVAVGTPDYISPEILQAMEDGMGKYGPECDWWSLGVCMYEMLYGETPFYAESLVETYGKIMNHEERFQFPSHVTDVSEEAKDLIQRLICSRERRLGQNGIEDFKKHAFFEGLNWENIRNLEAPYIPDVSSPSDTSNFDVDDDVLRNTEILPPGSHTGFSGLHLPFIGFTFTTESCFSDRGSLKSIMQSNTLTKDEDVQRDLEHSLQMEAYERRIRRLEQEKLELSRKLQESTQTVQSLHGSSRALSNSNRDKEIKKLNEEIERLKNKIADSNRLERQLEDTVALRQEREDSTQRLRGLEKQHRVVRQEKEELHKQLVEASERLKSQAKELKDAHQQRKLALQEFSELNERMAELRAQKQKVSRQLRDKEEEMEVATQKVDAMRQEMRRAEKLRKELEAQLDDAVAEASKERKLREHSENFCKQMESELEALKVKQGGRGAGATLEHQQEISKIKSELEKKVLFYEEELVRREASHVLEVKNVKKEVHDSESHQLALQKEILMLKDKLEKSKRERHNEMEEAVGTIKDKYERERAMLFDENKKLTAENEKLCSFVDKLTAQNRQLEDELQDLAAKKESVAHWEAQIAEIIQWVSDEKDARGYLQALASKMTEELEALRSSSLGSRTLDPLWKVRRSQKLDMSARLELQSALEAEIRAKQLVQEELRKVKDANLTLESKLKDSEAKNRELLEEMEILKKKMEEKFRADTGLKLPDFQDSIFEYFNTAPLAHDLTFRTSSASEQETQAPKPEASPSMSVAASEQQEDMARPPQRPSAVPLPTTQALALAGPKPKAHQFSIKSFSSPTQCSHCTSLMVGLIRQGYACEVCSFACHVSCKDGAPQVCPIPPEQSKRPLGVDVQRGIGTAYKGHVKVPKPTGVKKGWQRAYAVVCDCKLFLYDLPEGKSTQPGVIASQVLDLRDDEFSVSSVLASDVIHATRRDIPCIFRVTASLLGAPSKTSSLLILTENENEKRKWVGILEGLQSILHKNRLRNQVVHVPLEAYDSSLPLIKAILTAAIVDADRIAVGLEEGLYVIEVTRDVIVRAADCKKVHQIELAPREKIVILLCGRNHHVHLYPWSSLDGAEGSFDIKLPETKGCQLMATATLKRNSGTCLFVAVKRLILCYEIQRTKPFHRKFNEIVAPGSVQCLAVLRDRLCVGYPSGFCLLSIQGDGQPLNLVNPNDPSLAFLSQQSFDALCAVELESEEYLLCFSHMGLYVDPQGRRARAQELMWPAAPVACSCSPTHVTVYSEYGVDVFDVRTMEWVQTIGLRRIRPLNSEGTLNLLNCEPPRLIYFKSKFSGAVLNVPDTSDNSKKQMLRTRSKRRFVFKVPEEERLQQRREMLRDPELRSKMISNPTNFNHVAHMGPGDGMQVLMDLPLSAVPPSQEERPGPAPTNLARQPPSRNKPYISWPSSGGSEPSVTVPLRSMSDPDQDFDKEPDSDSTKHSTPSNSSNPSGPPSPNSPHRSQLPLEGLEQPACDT
Procedure: as §1

Fyn = target: T8, Fyn (Homo sapiens, UniProt P06241); assay: KinaseProfiler off-target kinase profiling; assay type: biochemical; conditions: 10 μM, ATP near Km
T8 construct: purchased Millipore, Inc. (KinaseProfiler service)
Procedure: as §1

SRPK1 = target: T9, SRPK1 (Homo sapiens, UniProt Q96SB4); assay: KinaseProfiler off-target kinase profiling; assay type: biochemical; conditions: 10 μM, ATP near Km
T9 construct: purchased Millipore, Inc. (KinaseProfiler service)
Procedure: as §1

CDK3/cyclinE = target: T10, CDK3/cyclinE (Homo sapiens, UniProt Q00526); assay: KinaseProfiler off-target kinase profiling; assay type: biochemical; conditions: 10 μM, ATP near Km
T10 construct: purchased Millipore, Inc. (KinaseProfiler service)
Procedure: as §1

Plk1 = target: T11, Plk1 (Homo sapiens, UniProt P53350); assay: KinaseProfiler off-target kinase profiling; assay type: biochemical; conditions: 10 μM, ATP near Km
T11 construct: purchased Millipore, Inc. (KinaseProfiler service)
Procedure: as §1

Ros = target: T12, Ros (Homo sapiens, UniProt P08922); assay: KinaseProfiler off-target kinase profiling; assay type: biochemical; conditions: 10 μM, ATP near Km
T12 construct: purchased Millipore, Inc. (KinaseProfiler service)
Procedure: as §1

TSSK2 = target: T13, TSSK2 (Homo sapiens, UniProt Q96PF2); assay: KinaseProfiler off-target kinase profiling; assay type: biochemical; conditions: 10 μM, ATP near Km
T13 construct: purchased Millipore, Inc. (KinaseProfiler service)
T13 sequence (Q96PF2 whole entry): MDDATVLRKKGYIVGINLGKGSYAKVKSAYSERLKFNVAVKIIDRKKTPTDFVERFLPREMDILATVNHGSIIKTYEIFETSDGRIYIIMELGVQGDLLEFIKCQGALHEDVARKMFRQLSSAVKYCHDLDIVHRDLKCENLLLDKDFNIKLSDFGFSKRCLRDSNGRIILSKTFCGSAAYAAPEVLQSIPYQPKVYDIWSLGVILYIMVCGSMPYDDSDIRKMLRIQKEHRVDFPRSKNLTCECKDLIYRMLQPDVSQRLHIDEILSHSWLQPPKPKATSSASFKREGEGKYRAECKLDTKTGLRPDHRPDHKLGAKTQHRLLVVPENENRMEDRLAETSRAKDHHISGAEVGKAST
Procedure: as §1

MSK1 = target: T14, MSK1 (Homo sapiens, UniProt O75582); assay: KinaseProfiler off-target kinase profiling; assay type: biochemical; conditions: 10 μM, ATP near Km
T14 construct: purchased Millipore, Inc. (KinaseProfiler service)
Procedure: as §1

DCAMKL2 = target: T15, DCAMKL2 (Homo sapiens, UniProt Q8N568); assay: KinaseProfiler off-target kinase profiling; assay type: biochemical; conditions: 10 μM, ATP near Km
T15 construct: purchased Millipore, Inc. (KinaseProfiler service)
Procedure: as §1

CK1gamma1 = target: T16, CK1gamma1 (Homo sapiens, UniProt Q9HCP0); assay: KinaseProfiler off-target kinase profiling; assay type: biochemical; conditions: 10 μM, ATP near Km
T16 construct: purchased Millipore, Inc. (KinaseProfiler service)
T16 sequence (Q9HCP0 whole entry): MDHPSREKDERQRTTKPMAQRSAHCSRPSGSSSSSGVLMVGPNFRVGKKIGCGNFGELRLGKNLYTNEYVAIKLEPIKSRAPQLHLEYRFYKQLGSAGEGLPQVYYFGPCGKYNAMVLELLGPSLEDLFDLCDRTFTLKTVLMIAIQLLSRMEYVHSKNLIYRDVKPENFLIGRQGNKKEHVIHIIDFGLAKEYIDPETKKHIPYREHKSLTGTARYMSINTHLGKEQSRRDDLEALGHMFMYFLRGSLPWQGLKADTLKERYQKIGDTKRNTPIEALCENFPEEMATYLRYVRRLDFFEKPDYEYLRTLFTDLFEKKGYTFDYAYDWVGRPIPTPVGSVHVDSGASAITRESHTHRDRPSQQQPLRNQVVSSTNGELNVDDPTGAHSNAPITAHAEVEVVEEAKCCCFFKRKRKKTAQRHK
Procedure: as §1

EphA7 = target: T17, EphA7 (Homo sapiens, UniProt Q15375); assay: KinaseProfiler off-target kinase profiling; assay type: biochemical; conditions: 10 μM, ATP near Km
T17 construct: purchased Millipore, Inc. (KinaseProfiler service)
Procedure: as §1

SRC = target: T18, SRC (Homo sapiens, UniProt P12931); assay: KinaseProfiler off-target kinase profiling; assay type: biochemical; conditions: 10 μM, ATP near Km
T18 construct: purchased Millipore, Inc. (KinaseProfiler service)
Procedure: as §1

FAK2 = target: T19, FAK2 (Homo sapiens, UniProt Q14289); assay: KinaseProfiler off-target kinase profiling; assay type: biochemical; conditions: 10 μM, ATP near Km
T19 construct: purchased Millipore, Inc. (KinaseProfiler service)
T19 sequence (Q14289 whole entry): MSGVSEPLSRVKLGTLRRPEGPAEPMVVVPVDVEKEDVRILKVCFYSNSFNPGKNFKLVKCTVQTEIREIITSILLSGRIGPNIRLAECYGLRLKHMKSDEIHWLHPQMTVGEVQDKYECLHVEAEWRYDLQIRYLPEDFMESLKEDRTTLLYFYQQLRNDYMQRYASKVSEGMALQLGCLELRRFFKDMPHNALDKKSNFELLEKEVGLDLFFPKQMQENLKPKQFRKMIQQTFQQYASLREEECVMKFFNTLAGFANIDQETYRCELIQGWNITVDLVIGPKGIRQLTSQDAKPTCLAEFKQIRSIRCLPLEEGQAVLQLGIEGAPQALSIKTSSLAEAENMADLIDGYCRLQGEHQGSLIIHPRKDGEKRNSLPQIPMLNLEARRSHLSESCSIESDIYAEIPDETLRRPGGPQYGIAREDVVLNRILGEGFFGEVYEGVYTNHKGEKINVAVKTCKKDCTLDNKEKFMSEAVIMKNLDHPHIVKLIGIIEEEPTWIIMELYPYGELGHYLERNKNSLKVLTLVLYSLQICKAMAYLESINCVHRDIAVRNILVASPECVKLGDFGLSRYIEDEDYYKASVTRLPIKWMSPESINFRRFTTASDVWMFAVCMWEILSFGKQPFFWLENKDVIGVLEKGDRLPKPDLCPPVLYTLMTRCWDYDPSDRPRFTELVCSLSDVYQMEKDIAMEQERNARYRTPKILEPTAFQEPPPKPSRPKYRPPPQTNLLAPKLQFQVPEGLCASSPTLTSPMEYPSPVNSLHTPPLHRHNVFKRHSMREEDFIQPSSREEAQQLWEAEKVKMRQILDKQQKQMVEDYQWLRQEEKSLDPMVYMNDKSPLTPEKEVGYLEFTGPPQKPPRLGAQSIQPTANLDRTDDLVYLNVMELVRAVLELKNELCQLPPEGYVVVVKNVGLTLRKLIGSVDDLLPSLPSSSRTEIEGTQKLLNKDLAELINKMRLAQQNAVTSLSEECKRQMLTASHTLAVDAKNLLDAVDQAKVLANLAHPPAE
Procedure: as §1

TNK2 = target: T20, TNK2 (Homo sapiens, UniProt Q07912); assay: KinaseProfiler off-target kinase profiling; assay type: biochemical; conditions: 10 μM, ATP near Km
T20 construct: purchased Millipore, Inc. (KinaseProfiler service)
Procedure: as §1

SRPK2 = target: T21, SRPK2 (Homo sapiens, UniProt P78362); assay: KinaseProfiler off-target kinase profiling; assay type: biochemical; conditions: 10 μM, ATP near Km
T21 construct: purchased Millipore, Inc. (KinaseProfiler service)
T21 sequence (P78362 whole entry): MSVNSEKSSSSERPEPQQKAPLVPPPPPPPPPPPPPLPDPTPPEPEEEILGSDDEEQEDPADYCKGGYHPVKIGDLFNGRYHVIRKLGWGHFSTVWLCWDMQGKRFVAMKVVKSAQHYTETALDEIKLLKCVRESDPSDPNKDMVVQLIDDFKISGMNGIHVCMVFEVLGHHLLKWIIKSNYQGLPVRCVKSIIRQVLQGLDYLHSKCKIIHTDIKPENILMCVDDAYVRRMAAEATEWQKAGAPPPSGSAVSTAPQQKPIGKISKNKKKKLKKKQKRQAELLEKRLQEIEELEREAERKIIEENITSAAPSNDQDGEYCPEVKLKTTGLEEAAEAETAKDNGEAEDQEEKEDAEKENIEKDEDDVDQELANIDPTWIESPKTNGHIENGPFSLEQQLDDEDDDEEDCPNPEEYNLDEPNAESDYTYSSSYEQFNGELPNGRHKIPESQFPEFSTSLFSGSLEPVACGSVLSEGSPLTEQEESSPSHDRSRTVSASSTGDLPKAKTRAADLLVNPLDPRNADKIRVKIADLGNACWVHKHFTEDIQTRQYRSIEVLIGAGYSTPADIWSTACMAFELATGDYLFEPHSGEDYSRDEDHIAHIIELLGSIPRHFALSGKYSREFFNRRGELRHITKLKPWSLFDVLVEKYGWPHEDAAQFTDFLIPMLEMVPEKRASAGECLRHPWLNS
Procedure: as §1

FGFR2 = target: T22, FGFR2 (Homo sapiens, UniProt P21802); assay: KinaseProfiler off-target kinase profiling; assay type: biochemical; conditions: 10 μM, ATP near Km
T22 construct: purchased Millipore, Inc. (KinaseProfiler service)
Procedure: as §1

WNK3 = target: T23, WNK3 (Homo sapiens, UniProt Q9BYP7); assay: KinaseProfiler off-target kinase profiling; assay type: biochemical; conditions: 10 μM, ATP near Km
T23 construct: purchased Millipore, Inc. (KinaseProfiler service)
Procedure: as §1

MKNK2 = target: T24, MKNK2 (Homo sapiens, UniProt Q9HBH9); assay: KinaseProfiler off-target kinase profiling; assay type: biochemical; conditions: 10 μM, ATP near Km
T24 construct: purchased Millipore, Inc. (KinaseProfiler service)
T24 sequence (Q9HBH9 whole entry): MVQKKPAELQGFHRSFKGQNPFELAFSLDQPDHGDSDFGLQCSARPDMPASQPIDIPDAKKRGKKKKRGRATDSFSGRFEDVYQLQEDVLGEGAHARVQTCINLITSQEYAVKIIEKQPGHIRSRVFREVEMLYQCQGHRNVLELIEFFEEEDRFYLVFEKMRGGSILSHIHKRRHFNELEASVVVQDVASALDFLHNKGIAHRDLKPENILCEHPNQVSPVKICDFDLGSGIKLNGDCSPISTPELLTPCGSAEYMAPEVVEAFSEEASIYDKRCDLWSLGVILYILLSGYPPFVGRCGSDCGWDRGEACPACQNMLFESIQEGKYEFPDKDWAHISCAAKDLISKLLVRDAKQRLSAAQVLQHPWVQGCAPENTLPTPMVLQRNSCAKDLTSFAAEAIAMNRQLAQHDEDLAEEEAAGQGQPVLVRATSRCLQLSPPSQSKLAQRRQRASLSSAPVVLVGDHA
Procedure: as §1

EphA5 = target: T25, EphA5 (Homo sapiens, UniProt P54756); assay: KinaseProfiler off-target kinase profiling; assay type: biochemical; conditions: 10 μM, ATP near Km
T25 construct: purchased Millipore, Inc. (KinaseProfiler service)
Procedure: as §1

LKB1 = target: T26, LKB1 (Homo sapiens, UniProt Q15831); assay: KinaseProfiler off-target kinase profiling; assay type: biochemical; conditions: 10 μM, ATP near Km
T26 construct: purchased Millipore, Inc. (KinaseProfiler service)
Procedure: as §1

Mer = target: T27, Mer (Homo sapiens, UniProt Q12866); assay: KinaseProfiler off-target kinase profiling; assay type: biochemical; conditions: 10 μM, ATP near Km
T27 construct: purchased Millipore, Inc. (KinaseProfiler service)
Procedure: as §1

MAPKAP-K5 = target: T28, MAPKAP-K5 (Homo sapiens, UniProt Q8IW41); assay: KinaseProfiler off-target kinase profiling; assay type: biochemical; conditions: 10 μM, ATP near Km
T28 construct: purchased Millipore, Inc. (KinaseProfiler service)
Procedure: as §1

MAPKAP-K3 = target: T29, MAPKAP-K3 (Homo sapiens, UniProt Q16644); assay: KinaseProfiler off-target kinase profiling; assay type: biochemical; conditions: 10 μM, ATP near Km
T29 construct: purchased Millipore, Inc. (KinaseProfiler service)
Procedure: as §1

DAPK2 = target: T30, DAPK2 (Homo sapiens, UniProt Q9UIK4); assay: KinaseProfiler off-target kinase profiling; assay type: biochemical; conditions: 10 μM, ATP near Km
T30 construct: purchased Millipore, Inc. (KinaseProfiler service)
T30 sequence (Q9UIK4 whole entry): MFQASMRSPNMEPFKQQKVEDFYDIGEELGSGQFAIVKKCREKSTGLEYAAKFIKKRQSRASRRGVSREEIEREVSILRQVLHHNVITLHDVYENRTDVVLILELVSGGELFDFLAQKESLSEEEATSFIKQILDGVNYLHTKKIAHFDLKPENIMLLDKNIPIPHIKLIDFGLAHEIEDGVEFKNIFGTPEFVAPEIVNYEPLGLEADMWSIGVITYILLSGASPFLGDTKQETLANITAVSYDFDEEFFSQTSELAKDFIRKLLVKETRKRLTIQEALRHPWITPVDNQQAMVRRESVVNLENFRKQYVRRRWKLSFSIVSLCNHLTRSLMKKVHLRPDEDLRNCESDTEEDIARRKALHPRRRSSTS
Procedure: as §1

mTOR = target: T31, mTOR (Homo sapiens, UniProt P42345); assay: KinaseProfiler off-target kinase profiling; assay type: biochemical; conditions: 10 μM, ATP near Km
T31 construct: purchased Millipore, Inc. (KinaseProfiler service)
Procedure: as §1

Avg POC (TrkA [1]): 2.5% of control
IC50 (TrkA [2]): < 100 nM
Avg POC (PKAC-alpha): 98.5% of control
Avg POC (CK2alpha2): 113% of control
Avg POC (NEK11): 105% of control
Avg POC (EphA8): 122.5% of control
Avg POC (DRAK1): 104% of control
Avg POC (MRCKbeta): 140.5% of control
Avg POC (Fyn): 108.5% of control
Avg POC (SRPK1): 115.5% of control
Avg POC (CDK3/cyclinE): 99.5% of control
Avg POC (Plk1): 93% of control
Avg POC (Ros): 111% of control
Avg POC (TSSK2): 124% of control
Avg POC (MSK1): 121.5% of control
Avg POC (DCAMKL2): 142% of control
Avg POC (CK1gamma1): 116% of control
Avg POC (EphA7): 101% of control
Avg POC (SRC): 124% of control
Avg POC (FAK2): 107.5% of control
Avg POC (TNK2): 99.5% of control
Avg POC (SRPK2): 109% of control
Avg POC (FGFR2): 106.5% of control
Avg POC (WNK3): 99.5% of control
Avg POC (MKNK2): 96% of control
Avg POC (EphA5): 107% of control
Avg POC (LKB1): 114.5% of control
Avg POC (Mer): 126.5% of control
Avg POC (MAPKAP-K5): 108% of control
Avg POC (MAPKAP-K3): 75.5% of control
Avg POC (DAPK2): 99% of control
Avg POC (mTOR): 99% of control
SMILES: COCCN1C[C@@H](NC(=O)Nc2sc(C(C)C)nc2-c2ccccc2)[C@H](c2ccccc2)C1 [Example 48, 1-(2-isopropyl-4-phenylthiazol-5-yl)-3-((3S,4R)-1-(2-methoxyethyl)-4-phenylpyrrolidin-3-yl)urea]
